In patent US12076307B2, “Compositions for prevention or treatment of acute radiation syndrome and other radiation exposure” (priority 2017, dated 2024):
Read-outs that look alike come from different tables or passages of the source.

Columns and labels:
[1] = system: Balb/c mice, gamma-ray 6.11 Gy; experiment: DAMP (HMGB1, S100A9) in blood of irradiated mice; assay type: in vivo, mouse; conditions: 50 and 250 mg/kg oral 3 days from day 1
Method: To confirm the proposed mechanism of EC-18 in the in vivo model, female Balb/c mice were irradiated with a gamma-ray of 6.11 Gy on day 0. Then, EC-18 (50 and 250 mg/kg) or PBS was orally administered for 3 consecutive days from day 1 and the mice were sacrificed on the third day. […] While, from the EC-18-treated group, the amount of DAMP reduced compared to the control group, supporting the proposed mechanism of EC-18. Establishment of a Balb/C Mouse Model for ARS

[2] = Plasma radioactivity in rats after single oral or IV [14C]EC-18; assay type: in vivo, rat; conditions: oral, fed condition
Method: Male SD rats in the fed state were administered a single oral dose of 25, 50, or 100 mg/kg (vehicle: olive oil) or a single IV injection of 10 mg/kg of [^14C]EC-18 (EC-18 with radioactive isotope ^14C attached). Subsequently, the PK parameters were assessed. The concentration of radioactivity in rat plasma was measured by liquid scintillation counting (LSC) method after adding a scintillator (Clear-Sol I, Nacalai Tesque, Inc).

[3] = In vitro plasma stability, human plasma; assay type: in vitro ADME; conditions: Humans; 1 μM; 37° C.; n=3
Method: To assess the stability of EC-18 in plasma, the test material, or the standard reference material (test concentration 1 μM) was mixed with rat and human plasma and allowed to react for 1 hr at 37° C. Then, the residual EC-18 concentration was measured by LC-MS/MS. As standard reference materials, albendazole (a drug with high plasma stability) and vinpocetine (a drug with low plasma stability) were tested in parallel. When allowed to react with rat and human plasma for 1 hr, the residual EC-18 concentration in both rat and human plasma was >99% of the initial dose.

[4] = In vitro metabolite screening, dog liver microsomes; assay type: in vitro ADME; conditions: N=2
Method: [^14C]EC-18 or the positive control (7-ethoxycoumarin; 7-EC) reacted with microsomes prepared from hepatocytes of rats, dogs, monkeys, and humans, with or without cofactors, for 60 and 120 min. Then, the residual EC-18 concentration over time was measured by LC-RID ([^14C]EC-18) or LC-MS/MS (7-EC) (FIG. 63 and FIG. 64).
The LC-RID chromatographic profiles of radioactive metabolites produced in the 2-hr incubation reaction mixtures of the same test systems A, B, and C used to assess the metabolic and non-metabolic elimination rates of EC-18 were compared to the LC-UV chromatographic profiles of the synthetic reference material. […] The relative radioactivity of EC-18 accounted for 42-67% of total radioactivity. The peaks designated as M2, M3, and M5 were also determined in all species, and their relative radioactivity accounted for 12-34% of total radioactivity. The peaks of M4 and M6 were determined in monkeys and humans. M1 was abundantly detected in all species, but it was assumed to be a peak of early elution. The LC-UV chromatograms of reaction mixtures in each test system (FIGS. 65A-65C) and the relative radioactivity of the screened metabolites are shown in Table 25.

CYP3A4 = conditions: for Enzyme Activity CYP3A4: n=3
Method: This test was performed to determine if EC-18 was capable of inducing CYP1A2 and CYP3A4 activities in human primary hepatocytes.

[5] = Pathway of excretion in rats after single oral [14C]EC-18; assay type: in vivo, rat; conditions: 50 mg/kg oral, 50 mg/kg
Method: To assess the routes of EC-18 excretion, male rats were administered a single dose of [^14C]EC-18 (oral dose of 50 mg/kg), after which, radioactive concentrations were measured in urine, feces, and exhaled air in the chamber of the animals for 168 hrs, and in the body after the autopsy.

SD rat = experiment: Immunotoxicity study; assay type: in vivo; conditions: Oral; 4 weeks; 0, 2000 mg/kg
Text: Various toxicology studies have been performed. All studies were GLP-compliant unless otherwise noted.

CCCCC/C=C\C/C=C\CCCCCCCC(=O)OC(COC(C)=O)COC(=O)CCCCCCCCCCCCCCC (stereo not drawn) [EC-18, 1-palmitoyl-2-linoleoyl-3-acetylglycerol]
amount of DAMP (HMGB1, S100A9) in blood vs control group [1]: reduced
absolute bioavailability (BA) [2]: approximately 46%
Residual Concentration Relative to the Initial Dose After Reaction for 1 hr in Plasma [3]: >99%
Mean Peak Area in LC-RID ([4]; A (NADPH added), [14C]EC-18 2 hrs): 52.6%
Mean Peak Area in LC-RID ([4]; B (NADPH, PAPS, UDPGA added), 2 hrs): 54.3%
Mean Peak Area in LC-RID ([4]; C (no cofactor added), 2 hrs): 56.6%
Enzyme Activity CYP3A4 (CYP3A4; 1 μM): 3.44 ± 0.73 pmol/106 Cells/Min
Enzyme Activity CYP3A4 (CYP3A4; 10 μM): 3.11 ± 0.25 pmol/106 Cells/Min
Enzyme Activity CYP3A4 (CYP3A4; 100 μM): 3.61 ± 0.28 pmol/106 Cells/Min
potential to induce CYP3A4 (CYP3A4; up to 100 μM): no potential to induce
Cumulative Radioactive Concentration Relative to the Administered Dose, Exhaled Air ([5]; 0-24 hr): approximately 71%
Cumulative Radioactive Concentration Relative to the Administered Dose, Feces ([5]; 0-24 hr): ~3%
Cumulative Radioactive Concentration Relative to the Administered Dose, Total ([5]; 0-24 hr): approximately 76%
Cumulative Radioactive Concentration Relative to the Administered Dose, Urine ([5]; 0-24 hr): ~2%
Cumulative Radioactive Concentration Relative to the Administered Dose, Exhaled Air ([5]; 0-72 hr): ~77%
Cumulative Radioactive Concentration Relative to the Administered Dose, Feces ([5]; 0-72 hr): ~4%
Cumulative Radioactive Concentration Relative to the Administered Dose, Total ([5]; 0-72 hr): approximately 83%
Cumulative Radioactive Concentration Relative to the Administered Dose, Urine ([5]; 0-72 hr): ~2%
Cumulative Radioactive Concentration Relative to the Administered Dose, Cadaver ([5]; 0-168 hr): approximately 10%
Cumulative Radioactive Concentration Relative to the Administered Dose, Exhaled Air ([5]; 0-168 hr): ~79%
Cumulative Radioactive Concentration Relative to the Administered Dose, Feces ([5]; 0-168 hr): ~4%
Cumulative Radioactive Concentration Relative to the Administered Dose, Total ([5]; 0-168 hr): ~96%
Cumulative Radioactive Concentration Relative to the Administered Dose, Urine ([5]; 0-168 hr): ~2%
immunotoxicity (SD rat): No immunotoxicity
